Reference: paper PMC8471380 (Molecules, 2021)

How the values were obtained:
human erythrocyte AChE [1] = molecular target: T1, human erythrocyte AChE (Homo sapiens, UniProt P22303); assay: biochemical; conditions: mean ± SEM, n = 3; for inhibition at 20 µM: read-out: % of inhibition of AChE with 20 µM concentration of the compound, 20 µM compound
T1 construct: commercial human erythrocyte AChE; purchased Sigma; host or cells: human erythrocytes

[2] = molecular target: T2, ifenprodil-binding site of NMDA receptor (NR2B subunit) (Rattus norvegicus, UniProt P35439+Q00960); assay: Radioligand binding assay, [3H]ifenprodil displacement
T2 construct: from tissue; host or cells: rat hippocampus membranes
Protocol: (§3) The effect of the test compounds on radioligand binding to NMDA receptors was evaluated by a modified method, as previously reported [83]. The following two radioligands were used: [^3H] […] A hippocampal membrane preparation for the radioligand binding assay was made as described previously [86, 87]. The obtained membrane pellet was resuspended in a working buffer (5 mM HEPES/4.5 mM Tris, pH 7.6 at 4 °C) in a ratio of 1:5 and stored in liquid nitrogen. The reaction mixture (the final volume was 0.5 mL) contained the working buffer (200 μL), a 50 nM radioligand solution (50 μL) and the membrane suspension (250 μL). The nonspecific binding was evaluated in the presence of 1 mM of the unlabeled ligand (50 μL).
(§4) For the binding assay, the reaction mixture was incubated at room temperature for 2 h. After the incubation, the samples were filtered through GF/B glass fiber filters (Whatman), washed with the working buffer, dried and transferred to scintillation vials. Then the scintillation fluid (5 mL), which is composed of diphenyloxazole (PPO) (4 g) and bis(5-phenyl-2-oxazolyl)benzene (POPOP) (0.2 g) in toluene (1 L) were added to the vials.
(§5) The effect of the test compounds on the binding of [^3H] […] The values of Ki were calculated according to a previously described method [88].

[3] = molecular target: T3, MK-801-binding (intrachannel) site of NMDA receptor (Rattus norvegicus, UniProt P35439); assay: Radioligand binding assay, [3H]MK-801 displacement
T3 construct: from tissue; host or cells: rat hippocampus membranes
Protocol: as §3, §4, §5

porcine liver CES = molecular target: T4, porcine liver CES (Sus scrofa, UniProt Q29550); assay: CES inhibition, 4-nitrophenyl acetate hydrolysis; assay type: biochemical; conditions: read-out: % of inhibition of CES with 20 µM concentration of the compound
T4 sequence (Q29550 19-566): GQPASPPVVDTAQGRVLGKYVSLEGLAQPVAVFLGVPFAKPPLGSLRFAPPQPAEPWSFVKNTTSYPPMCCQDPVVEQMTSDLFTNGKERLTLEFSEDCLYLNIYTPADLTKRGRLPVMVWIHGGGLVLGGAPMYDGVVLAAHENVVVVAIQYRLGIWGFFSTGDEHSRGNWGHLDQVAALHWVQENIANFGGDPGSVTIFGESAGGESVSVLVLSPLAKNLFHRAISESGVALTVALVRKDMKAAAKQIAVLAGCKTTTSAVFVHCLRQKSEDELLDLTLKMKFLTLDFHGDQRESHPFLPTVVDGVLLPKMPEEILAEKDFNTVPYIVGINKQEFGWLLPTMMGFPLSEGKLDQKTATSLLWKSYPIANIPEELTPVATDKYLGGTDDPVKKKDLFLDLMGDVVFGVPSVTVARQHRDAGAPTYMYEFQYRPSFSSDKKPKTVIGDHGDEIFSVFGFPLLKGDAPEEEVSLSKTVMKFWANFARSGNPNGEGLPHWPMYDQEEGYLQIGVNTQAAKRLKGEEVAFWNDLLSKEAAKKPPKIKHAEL
Protocol: (§6) Reagents blanks consisted of reaction mixtures without substrates. […] Final enzyme and substrate concentrations were 0.02 unit/mL and 1 mM, respectively. Assays were carried out with a blank containing all constituents except porcine CES to assess non-enzymatic hydrolysis. The measurements were performed on a FLUOstar OPTIMA multifunctional microplate reader (BMG LABTECH, Ortenberg, Germany). The compounds were dissolved in DMSO. The incubation mixture contained 2% (v/v) of the solvent. […] The sample of the appropriate enzyme was incubated with the test compound for 5 min, and then the residual enzymatic activity was determined. Each experiment was performed in triplicate. […] Each experiment was performed in triplicate. The IC50 values were calculated with Origin 6.1 software.

equine serum BChE [4] = molecular target: T5, equine serum BChE (Equus caballus, UniProt P81908); assay: biochemical; conditions: 5 min incubation; mean ± SEM, n = 3
T5 construct: equine serum BChE; purchased Sigma; host or cells: equine serum
Protocol: as §6

[5] = test system: isolated rat liver mitochondria; assay: Ca2+-induced mitochondrial swelling (MPT pore opening); assay type: biochemical; conditions: 30 µM compound; 12.5 µM Ca2+; 10 mM glutamate, 2 mM malate, 10 mM succinate; percentage relative to the reference compound
Protocol: Experiments were performed using outbred male rats weighing 200–220 g. The animals were housed under standard vivarium conditions in a normal day/night cycle and had ad libitum access to water and food. The procedure of rat euthanasia using carbon dioxide (CO2) inhalation for mitochondria preparation is in compliance with the Guidelines for Animal Experiments, which were approved by the local bioethics committee of the IPAC RAS.
Rat liver mitochondria were isolated by conventional differential centrifugation. Membrane potential of rat liver mitochondria was measured using the potential-sensitive fluorescent probe Safranine A on a Victor 3 multilabel plate reader (Perkin Elmer, Waltham, MA, USA). The fluorescence was recorded at λex = 485 nm and λem = 590 nm. Mitochondrial swelling was measured by spectrophotometry in 96-well clear bottom plates on a Victor 3 microplate reader (Perkin Elmer, Waltham, MA, USA) at 620 nm; CaCl2 was added to induce mitochondrial swelling (MPT opening).

[6] = test system: tubulin and microtubule-associated proteins (Tb+MAP); assay: GTP-dependent Tb+MAP polymerization; assay type: biochemical, mouse; conditions: 100 µM compound; 0.1 mM GTP, 37 °C
Description: A crude fraction of tubulin and microtubule-associated proteins (Tb+MAP) was isolated from mouse brain tissue by a polymerization–depolymerization method. The procedure of mouse euthanasia using cervical dislocation for Tb+MAP preparation is in compliance with the Guidelines for Animal Experiments, which were approved by the local bioethics committee of the IPAC RAS. The freshly dissected brain was immediately placed on ice, cleared of meninges and surface blood vessels, and washed with cold buffer A (50 mM Tris-HCl, pH 6.9 at 4 °C, 2 mM EGTA). The extracted brain tissue was homogenized under ice cooling in the same buffer using a Potter S homogenizer (Sartorius). The resulting homogenate was centrifuged at 10,000× g for 30 min on an Avanti 25 centrifuge (Beckman) using a JA-14 rotor for the precipitation of non-ruptured cells. The precipitate was discarded, and the supernatant was again centrifuged at 100,000× g for 60 min at 4 °C on an Optima MAX XP centrifuge (Beckman) using a MLA-50 rotor. The precipitate was again discarded. The protein concentration in the supernatant was determined by the Bradford assay using the Bio-Rad Protein Assay kit (Bio-Rad, Hercules, CA, USA) according to manufacturer’s instructions. The resulting supernatant was a cytosolic fraction enriched in microtubular proteins (Tb and MAP).
The Tb+MAP preparation was centrifuged at 5000× g for 10 min at 4 °C immediately before polymerization in order to remove denatured and aggregated protein molecules by precipitation. The Tb+MAP polymerization was performed at 37 °C in buffer A in the presence of 0.1 mM GTP after addition of 100 µM of test compound or the same volume of vehicle (DMSO). The protein concentration in the sample was 0.2 mg/mL. The polymerization kinetics was monitored on a Victor 3 or EnVision microplate reader (Perkin Elmer, USA) at 355 nm and the stabilized rate of polymerization after the first wave was measured (dA355/dt).

human erythrocyte AChE [7] = molecular target: T1, human erythrocyte AChE; assay: Kinetic study of AChE inhibition (Lineweaver-Burk); assay type: biochemical
Protocol: (§1) Kinetic studies were performed using commercial human erythrocyte AChE, equine serum BChE and porcine liver CES (Sigma, USA). The AChE and BChE activity was evaluated by Ellman’s method (λ = 412 nm) using 1 mM acetylthiocholine and 1 mM butyrylthiocholine (Sigma, St. Louis, MO, USA), respectively, as the substrate in 100 mM phosphate buffer, pH 7.5, 0.33 mM DTNB, 0.02 unit/mL of AChE or BChE at 25 °C as described in detail in [71]. Reagents blanks consisted of reaction mixtures without substrates. The CES activity was measured spectrophotometrically based on the release of 4-nitrophenol (λ = 405 nm) in the presence of 1 mM 4-nitrophenyl acetate as the substrate in 100 mM phosphate buffer, pH 8.0, at 25 °C as described in [71]. Final enzyme and substrate concentrations were 0.02 unit/mL and 1 mM, respectively. Assays were carried out with a blank containing all constituents except porcine CES to assess non-enzymatic hydrolysis. The measurements were performed on a FLUOstar OPTIMA multifunctional microplate reader (BMG LABTECH, Ortenberg, Germany). The compounds were dissolved in DMSO. The incubation mixture contained 2% (v/v) of the solvent. […] The sample of the appropriate enzyme was incubated with the test compound for 5 min, and then the residual enzymatic activity was determined. Each experiment was performed in triplicate. […]. […] Each experiment was performed in triplicate. The IC50 values were calculated with Origin 6.1 software.
(§2) The mechanisms of AChE and BChE inhibition were assessed by a thorough analysis of enzyme kinetics. The residual activity was determined after a 5-min incubation at 25 °C (for temperature equilibration) with three increasing concentrations of the inhibitor and six decreasing substrate concentrations.

equine serum BChE [8] = molecular target: T5, equine serum BChE; assay: Kinetic study of BChE inhibition (Lineweaver-Burk); assay type: biochemical
Protocol: as §1, §2

PAS of EeAChE = molecular target: T6, PAS of EeAChE (Electrophorus electricus, UniProt O42275); assay type: binding; conditions: 20 µM compound; 7 µM EeAChE, 8 µM propidium iodide; mean ± SEM, n = 3
T6 construct: AChE from Electrophorus electricus (EeAChE, type VI-S, lyophilized powder); purchased Sigma-Aldrich type VI-S; host or cells: Electrophorus electricus tissue
Protocol: The compounds were evaluated as potential inhibitors of proaggregation activity of AChE by measuring the displacement of propidium iodide from the PAS of the enzyme [53] using a fluorescence method [28]. AChE from Electrophorus electricus (EeAChE, type VI-S, lyophilized powder, Sigma-Aldrich, St. Louis, MO, USA) was used for consistency with our previous studies [8, 13, 63, 74]. The fluorescence intensity of propidium iodide bound to AChE increases several-fold. A decrease in the fluorescence intensity in the presence of the test compounds is indicative of their ability to bind to the AChE PAS and, correspondingly, to inhibit β-amyloid aggregation.
EeAChE (7 µM) was incubated with 20 µM of the test compound in 1 mM Tris-HCl buffer, pH 8.0, at 25 °C for 15 min. Then a solution of propidium iodide was added (final concentration 8 µM), the mixture was incubated for 15 min, and the fluorescence spectrum was recorded (excitation at 530 nm and emission at 600 nm). […] The blank contained propidium iodide at the same concentration in 1 mM Tris-HCl buffer, pH 8.0 at 25 °C. The measurements were performed in triplicate on a FLUOstar OPTIMA multifunctional microplate reader.
The degree of displacement of propidium iodide from the PAS of AChE (% displacement) was calculated by the equation:% displacement = 100 − (IFAChE + Propidium + inhibitor/IFAChE + Propidium) × 100, where IFAChE + Propidium is the fluorescence intensity of propidium iodide bound to EeAChE in the absence of the test compound (taken as 100%), and IFAChE + Propidium + inhibitor is the fluorescence intensity of propidium iodide bound to EeAChE in the presence of the test compound.

[9] = Lineweaver-Burk double-reciprocal plots

T5 sequence (P81908 whole entry): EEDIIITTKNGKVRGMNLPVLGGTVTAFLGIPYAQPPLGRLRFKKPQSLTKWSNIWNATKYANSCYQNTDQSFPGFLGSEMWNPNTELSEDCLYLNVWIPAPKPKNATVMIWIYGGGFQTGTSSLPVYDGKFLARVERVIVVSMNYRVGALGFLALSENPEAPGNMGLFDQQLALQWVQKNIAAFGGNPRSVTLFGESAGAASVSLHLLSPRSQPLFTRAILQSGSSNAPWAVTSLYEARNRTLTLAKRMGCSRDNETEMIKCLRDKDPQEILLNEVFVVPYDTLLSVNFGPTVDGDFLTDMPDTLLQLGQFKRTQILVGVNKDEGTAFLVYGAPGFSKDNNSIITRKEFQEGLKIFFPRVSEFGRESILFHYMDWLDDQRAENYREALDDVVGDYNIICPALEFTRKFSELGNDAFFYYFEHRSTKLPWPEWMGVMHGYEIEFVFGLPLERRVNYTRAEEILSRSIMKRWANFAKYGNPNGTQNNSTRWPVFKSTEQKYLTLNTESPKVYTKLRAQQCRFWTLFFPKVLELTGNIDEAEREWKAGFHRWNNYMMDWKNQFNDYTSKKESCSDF
T6 sequence (O42275 24-633): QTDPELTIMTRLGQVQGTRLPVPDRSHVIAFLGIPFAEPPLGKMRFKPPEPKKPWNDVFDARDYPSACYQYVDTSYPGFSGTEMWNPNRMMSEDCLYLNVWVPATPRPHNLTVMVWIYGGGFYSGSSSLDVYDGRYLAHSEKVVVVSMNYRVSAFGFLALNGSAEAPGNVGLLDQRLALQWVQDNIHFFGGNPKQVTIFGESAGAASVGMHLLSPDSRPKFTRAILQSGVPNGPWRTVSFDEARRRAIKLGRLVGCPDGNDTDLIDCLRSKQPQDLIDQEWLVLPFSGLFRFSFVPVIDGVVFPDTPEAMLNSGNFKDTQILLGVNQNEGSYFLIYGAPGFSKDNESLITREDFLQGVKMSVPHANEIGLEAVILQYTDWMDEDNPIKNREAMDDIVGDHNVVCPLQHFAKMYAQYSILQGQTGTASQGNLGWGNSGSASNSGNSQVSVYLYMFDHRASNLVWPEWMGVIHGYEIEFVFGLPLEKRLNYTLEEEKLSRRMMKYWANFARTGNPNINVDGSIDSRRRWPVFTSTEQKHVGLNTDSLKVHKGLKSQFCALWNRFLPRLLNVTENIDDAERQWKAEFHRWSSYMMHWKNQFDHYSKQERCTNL
T1 sequence (P22303 32-617 isoform P22303-2 limits assumed): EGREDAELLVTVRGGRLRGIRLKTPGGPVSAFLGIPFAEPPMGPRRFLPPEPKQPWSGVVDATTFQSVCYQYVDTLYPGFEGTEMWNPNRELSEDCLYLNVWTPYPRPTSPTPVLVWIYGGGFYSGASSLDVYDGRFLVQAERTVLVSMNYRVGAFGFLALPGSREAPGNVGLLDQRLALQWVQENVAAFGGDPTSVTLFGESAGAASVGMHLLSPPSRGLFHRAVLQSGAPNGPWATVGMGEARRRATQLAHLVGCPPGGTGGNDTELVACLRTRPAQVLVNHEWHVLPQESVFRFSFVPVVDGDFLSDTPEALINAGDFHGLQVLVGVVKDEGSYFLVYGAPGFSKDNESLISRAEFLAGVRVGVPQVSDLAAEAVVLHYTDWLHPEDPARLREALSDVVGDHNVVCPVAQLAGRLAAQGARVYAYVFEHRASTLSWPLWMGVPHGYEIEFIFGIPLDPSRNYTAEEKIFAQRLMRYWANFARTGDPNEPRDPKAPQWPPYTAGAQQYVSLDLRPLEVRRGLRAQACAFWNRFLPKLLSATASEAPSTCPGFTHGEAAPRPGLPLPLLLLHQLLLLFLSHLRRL
T2 sequence (Q00960 27-1482, other chains not shown): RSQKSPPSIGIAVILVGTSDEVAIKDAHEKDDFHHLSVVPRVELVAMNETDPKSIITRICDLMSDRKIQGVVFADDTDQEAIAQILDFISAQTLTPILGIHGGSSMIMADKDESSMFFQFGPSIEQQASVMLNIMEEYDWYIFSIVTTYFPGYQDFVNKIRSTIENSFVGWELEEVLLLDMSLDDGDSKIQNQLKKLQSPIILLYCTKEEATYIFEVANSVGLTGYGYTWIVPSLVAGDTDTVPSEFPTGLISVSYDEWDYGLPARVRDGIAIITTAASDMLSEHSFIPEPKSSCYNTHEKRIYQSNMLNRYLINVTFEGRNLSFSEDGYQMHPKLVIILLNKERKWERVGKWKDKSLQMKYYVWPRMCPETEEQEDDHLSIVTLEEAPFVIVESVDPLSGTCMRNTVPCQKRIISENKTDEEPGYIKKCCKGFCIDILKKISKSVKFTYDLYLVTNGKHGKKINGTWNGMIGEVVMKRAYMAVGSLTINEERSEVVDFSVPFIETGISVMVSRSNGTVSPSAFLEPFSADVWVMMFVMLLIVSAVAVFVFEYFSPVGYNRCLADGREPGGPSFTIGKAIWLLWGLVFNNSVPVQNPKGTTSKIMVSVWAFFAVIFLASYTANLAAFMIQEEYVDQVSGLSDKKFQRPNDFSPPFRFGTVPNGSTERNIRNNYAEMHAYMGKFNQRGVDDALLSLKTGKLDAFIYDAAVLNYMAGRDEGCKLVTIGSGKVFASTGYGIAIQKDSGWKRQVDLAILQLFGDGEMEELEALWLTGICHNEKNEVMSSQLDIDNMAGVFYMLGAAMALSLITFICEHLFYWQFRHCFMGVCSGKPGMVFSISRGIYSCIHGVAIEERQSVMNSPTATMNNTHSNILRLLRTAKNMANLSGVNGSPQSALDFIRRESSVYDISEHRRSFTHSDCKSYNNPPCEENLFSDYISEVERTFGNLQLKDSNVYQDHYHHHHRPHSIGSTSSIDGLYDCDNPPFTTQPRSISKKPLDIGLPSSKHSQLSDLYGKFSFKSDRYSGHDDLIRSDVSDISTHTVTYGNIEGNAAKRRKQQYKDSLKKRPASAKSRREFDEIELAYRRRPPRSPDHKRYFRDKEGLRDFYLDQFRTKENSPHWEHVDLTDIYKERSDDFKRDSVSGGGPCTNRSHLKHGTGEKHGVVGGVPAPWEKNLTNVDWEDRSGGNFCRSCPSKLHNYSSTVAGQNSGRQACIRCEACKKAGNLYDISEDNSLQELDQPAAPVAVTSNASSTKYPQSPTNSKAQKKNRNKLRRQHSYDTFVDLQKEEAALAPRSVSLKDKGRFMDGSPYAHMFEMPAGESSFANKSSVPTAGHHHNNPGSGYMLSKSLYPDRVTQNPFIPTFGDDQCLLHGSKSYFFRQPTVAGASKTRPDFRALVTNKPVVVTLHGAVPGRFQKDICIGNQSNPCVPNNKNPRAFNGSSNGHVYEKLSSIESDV

Structure (SMILES)	IC50 (human erythrocyte AChE [1]; 5 min incubation)	Ki [2]	Ki [3]	inhibition at 20 µM (porcine liver CES)	IC50 (equine serum BChE [4])	Rate of Ca2+-Induced Mitochondrial Swelling (dA620/dt) [5]	Rate of Tb+MAP Polymerization (dA355/dt) [6]	αKi (non-competitive component), AChE (human erythrocyte AChE [7]; Lineweaver-Burk analysis)	Ki (human erythrocyte AChE [7]; Lineweaver-Burk analysis, read-out: Ki (competitive component), AChE)	Type of AChE inhibition (human erythrocyte AChE [7]; [9])	αKi (non-competitive component), BChE (equine serum BChE [8]; Lineweaver-Burk analysis)	Ki (equine serum BChE [8]; Lineweaver-Burk analysis, read-out: Ki (competitive component), BChE)	Type of BChE inhibition (equine serum BChE [8]; [9])	% of Displacement of Propidium Iodide from the PAS of EeAChE (PAS of EeAChE)	inhibition at 20 µM (human erythrocyte AChE [1])
CN1CCc2c(c3cc(F)ccc3n2CCNC23CC4CC(C)(CC(C)(C4)C2)C3)C1.Cl.Cl [Compound 4c, N-(2-(8-Fluoro-2-methyl-3,4-dihydro-1H-pyrido[4,3-b]indol-5(2H)-yl)ethyl)-3,5-dimethyladamantane-1-amine dihydrochloride]	39.7 ± 3.2 µM	3.1 ± 0.3 µM	4.7 ± 0.5 µM	6.9 ± 0.4%	0.729 ± 0.011 µM	31 ± 10%	166 ± 11%	45.5 ± 3.8 µM	13.7 ± 0.02 µM	mixed type of inhibition	0.70 ± 0.01 µM	0.23 ± 0.02 µM	mixed type of inhibition	13.1 ± 1.0%	–
CN1CCc2c(c3ccccc3n2CC(=O)NC23CC4CC(CC(C4)C2)C3)C1.Cl [Compound 8d, N-(Adamantan-1-yl)-2-(2-methyl-3,4-dihydro-1H-pyrido[4,3-b]indol-5(2H)-yl)acetamide hydrochloride]	–	79.1 ± 7.1 µM	49.5 ± 4.5 µM	8.8 ± 1.2%	26.5 ± 0.4 µM	45 ± 17%	128 ± 15%	–	–	–	–	–	–	1.4 ± 0.2%	5.4 ± 1%
Cc1ccc2c(c1)c1c(n2CC(=O)NC23CC4CC(CC(C4)C2)C3)CCN(C)C1.Cl [Compound 8e, N-(Adamantan-1-yl)-2-(2,8-dimethyl-3,4-dihydro-1H-pyrido[4,3-b]indol-5(2H)-yl)acetamide hydrochloride]	–	105 ± 10 µM	72.7 ± 6.6 µM	9.9 ± 1.5%	43.2 ± 2.9 µM	49 ± 12%	133 ± 28%	–	–	–	–	–	–	1.2 ± 0.1%	13.5 ± 0.9%
